{
  "source": "paper PMC5025780",
  "about": "“Copper(II) ions affect the gating dynamics of the 20S proteasome: a molecular and in cell study” (Scientific Reports, 2016)",
  "key": {"[1]": {"system": "T1, human 20S proteasome (hCP)", "T1 construct": "purchased Boston Biochem (Cambridge, MA, USA)", "experiment": "Native gel electrophoresis of purified hCP (assembly)", "conditions": "1 h incubation with 1 and 5 μM Cu(II)", "description": "Currently, there are only few molecules known to inhibit the ChT-L, C-L, and T-L proteasome activities to the same extent. In principle, these agents are thought to inactivate the CP by upstream events involving protein damage (e.g. oxidation, disassembling of the enzyme into α and β subunits)[29][30] or, as recently reported, to allosteric effects involving proteasome gating. To address these issues, we performed native gel electrophoresis of purified hCP after 1 h incubation with 1 and 5 μM Cu(II) ions (Fig. 1B). […] Thus, we can exclude that Cu(II)-treated hCP could disassemble in α and β subunits. […] To this aim we i) assayed the presence of Cu(I) species in Cu(II)-loaded hCP samples by UV spectroscopy using bathocuproine disulfonic acid sodium salt (BCS) (see Figure S1 of Supporting Information) and ii) monitored the ROS production using fluorescein as a probe whose fluorescence intensity decreases upon reacting with ROS[32]. […]\nProteasome-enriched fractions were subjected to non denaturing native gel electrophoresis, as described elsewhere. […] Peptidolytic activity of proteasome-enriched fractions from cell lysates was evaluated after incubating the gels in a Suc-LLVY-AMC substrate dissolved in 50 mM Tris pH 8.0, 5 mM MgCl2, 1 mM DTT, 1 mM ATP, at 37 °C for 15 min. […] Images of the gels were acquired by Chemidoc (Biorad), and fluorescent bands were quantified by using the Image J software."}, "[2]": {"system": "ubiquitinated proteins in Hela cells", "experiment": "Western blot of polyubiquitinated proteins in HeLa cells", "format": "cell-based, human", "conditions": "20 and 80 μM Cu(II), 24 hours", "description": "After 24 h of copper(II) treatment (20–80 μM), HeLa cells were washed with cold PBS, and lysed with 100 μL of RIPA buffer for 5 minutes at 4 °C, sonicated and centrifuged for 10 minutes at 4 °C (1400 rpm). The protein content of lysates is quantified using the BCA method, (protein assay kit, BioRad). Western blotting analysis for polyUb chains was performed on total protein extracts ([…]). Samples were loaded onto 4–12% bis-Tris gel, (Invitrogen). After separation, proteins were transferred onto a nitrocellulose membrane. Membranes were blotted at 4 °C O/N with the following primary antibodies: rabbit monoclonal anti-polyubiquitin (linkage specific K48) (1:2500, Abcam), and mouse anti-β-actin (1:1000, Sigma Aldrich). Secondary goat anti-rabbit labeled with IRDye 680 (1:25.000 Li-COR Biosciences) and goat anti-mouse labeled with IRDye 800 (1:25.000 Li-COR Biosciences) were used at RT for 45 min. Hybridization signals were detected with the Odyssey Infrared Imaging System (LI-COR Biosciences)."}, "[3]": {"system": "T2, Wild type 20S proteasome (yCP)", "T2 construct": "made in house; host or cells: Saccharomyces cerevisiae", "experiment": "ChT-L peptidase activity of wild type yeast 20S proteasome (yCP)", "format": "biochemical, Saccharomices Cerevisiae", "conditions": "one-way ANOVA, p < 0.05", "excerpt": "Figure 4 (A) Copper(II)-inhibited ChT-L peptidase activity of yCP (red bars) and the α3ΔN mutant (green bars); (pdb code: 4Q1S). […] (B) Top views of the α-rings of yCP. C); Magnified picture of the yCP gate. The first nine residues of the α3 subunit, which are not present in the α3ΔN mutant, are represented in magenta. Two histidines (α6-H14 and α1-H6) located at the entrance of the gate and near the N-terminal segment of the α3 subunit are evidenced in red. A third His residue (α3-H30) is far away from the gate and is not shown.\nPurified human 20S proteasome (hCP) and the fluorogenic substrates Suc-LLVY-AMC, Z-Leu-Leu-Glu-AMC, and Ac-Arg-Leu-Arg-AMC used to assay the ChT-L, T-L, and C-L activity, were from Boston Biochem (Cambridge, MA, USA). Bathocuproinedisulfonic acid disodium salt (BCS), dithiothreitol (DTT), N-Acetyl-L-Cysteine (NAC), Sodium dodecylsulphate (SDS) as well as CuCl2 and Zn(NO3)2 were from Sigma-Aldrich (St. Louis, MO). Proteasome inhibitors Epoxomicin were obtained from Enzo Life Science. Wild type 20S proteasome isolated from Saccharomices Cerevisiae (yCP) and a mutant (α3ΔN) where nine residues of the N-terminal tail of the α3 subunit are deleted to provide a permanently open-gate conformations were isolated as described elsewhere."}},
  "data": [
    {"smiles": "[Cl][Cu][Cl]", "note": "[Cu(II), CuCl2]", "values": [
      {"measurement": "hCP assembly by native gel", "setting": "[1]", "value": "only a single band is present at 700 kDa"},
      {"measurement": "Accumulation of ubiquitinated proteins", "setting": "[2]", "value": "enhanced the accumulation of ubiquitinated proteins"},
      {"measurement": "ChT-L activity of yCP at 5 μM versus 3 μM", "setting": "[3]", "value": "significantly lower"}
    ]}
  ]
}
